Activity calls are given as the source filed them.
Legend:
BJ [1] = assay: cytotoxicity toward BJ-TERT fibroblasts, dose response, cell-based, RAS-independent, luminescence (AID 1933); type: functional; conditions: Homo sapiens
BJ [2] = assay: cells; type: functional, cell-based; conditions: Homo sapiens
BJ [3] = assay: cytotoxicity toward BJ-TERT-LT-ST fibroblasts, dose response, cell-based, RAS-independent, luminescence (AID 1935); type: functional; conditions: Homo sapiens;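 note: BJ fibroblasts immortalized with TERT plus LT and ST oncogenes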
[4] = cytotoxicity toward DRD oncogenic fibroblasts, dose response, cell-based, non-viral oncogenic, luminescence (AID 1934); type: functional; conditions: Homo sapiens
BJ [5] = assay: cytotoxicity toward Ras-transformed BJeLR fibroblasts, dose response, cell-based, alamar blue fluorescence, cherrypicked samples (AID 2631); type: functional; conditions: Homo sapiens;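 note: confirmatory dose-response assay in RAS-dependent BJ fibroblasts engineered with TERT, LT and ST, with cytotoxicity read by fluorescence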
Cysteine protease ATG4B = Cysteine protease ATG4B (Homo sapiens, UniProt Q9Y4P1); type: functional;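 note: Fluorescence-based dose-response confirmation assay measuring inhibition of ATG4B activity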
Sequence of Cysteine protease ATG4B (Q9Y4P1 whole entry): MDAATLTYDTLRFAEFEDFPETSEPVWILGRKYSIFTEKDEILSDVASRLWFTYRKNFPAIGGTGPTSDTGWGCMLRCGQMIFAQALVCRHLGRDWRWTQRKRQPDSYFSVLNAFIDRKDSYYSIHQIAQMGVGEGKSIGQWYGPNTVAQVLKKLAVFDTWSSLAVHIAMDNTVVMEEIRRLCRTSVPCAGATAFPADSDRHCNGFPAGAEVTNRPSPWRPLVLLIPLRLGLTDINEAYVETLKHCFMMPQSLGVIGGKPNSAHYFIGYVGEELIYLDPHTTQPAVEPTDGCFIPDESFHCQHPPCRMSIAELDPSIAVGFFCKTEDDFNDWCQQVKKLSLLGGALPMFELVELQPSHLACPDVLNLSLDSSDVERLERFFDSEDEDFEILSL

[6] = target: Heat shock protein HSP 90-alpha (Homo sapiens, UniProt P07900); type: functional, organism-based
Phospholipase A2 = Phospholipase A2 (Homo sapiens, UniProt P04054); type: functional;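 note: confirmatory dose-response counterscreen on phospholipase A2, testing hits that came from an ultra-high-throughput screen for ATG4B inhibitors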
Sequence of Phospholipase A2 (P04054 whole entry): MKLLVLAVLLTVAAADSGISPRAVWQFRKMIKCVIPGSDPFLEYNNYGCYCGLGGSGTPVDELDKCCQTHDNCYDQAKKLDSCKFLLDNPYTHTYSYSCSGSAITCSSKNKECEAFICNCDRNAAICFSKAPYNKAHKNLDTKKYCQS

[7] = target: 26S proteasome non-ATPase regulatory subunit 14 (Homo sapiens, UniProt O00487); assay: inhibition of proteasome subunit RPN11 – biochemical, fluorescence polarization, uHTS hits, confirmation (AID 602368); type: functional
Sequence of 26S proteasome non-ATPase regulatory subunit 14 (O00487 whole entry): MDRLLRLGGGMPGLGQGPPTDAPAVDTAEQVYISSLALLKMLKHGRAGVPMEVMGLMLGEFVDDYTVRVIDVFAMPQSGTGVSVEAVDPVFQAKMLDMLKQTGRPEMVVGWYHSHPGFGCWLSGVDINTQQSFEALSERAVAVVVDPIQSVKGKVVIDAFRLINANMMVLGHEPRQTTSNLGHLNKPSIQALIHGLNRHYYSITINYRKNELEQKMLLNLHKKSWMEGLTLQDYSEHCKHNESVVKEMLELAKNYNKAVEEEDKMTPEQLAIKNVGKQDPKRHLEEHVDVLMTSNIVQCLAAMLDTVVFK

[8] = target: 72 kDa type IV collagenase (Homo sapiens, UniProt P08253); assay: Dose Response validation of uHTS RPN11 inhibitor hits using a MMP-2 Fluorescence assay.; type: functional
Sequence of 72 kDa type IV collagenase (P08253 whole entry): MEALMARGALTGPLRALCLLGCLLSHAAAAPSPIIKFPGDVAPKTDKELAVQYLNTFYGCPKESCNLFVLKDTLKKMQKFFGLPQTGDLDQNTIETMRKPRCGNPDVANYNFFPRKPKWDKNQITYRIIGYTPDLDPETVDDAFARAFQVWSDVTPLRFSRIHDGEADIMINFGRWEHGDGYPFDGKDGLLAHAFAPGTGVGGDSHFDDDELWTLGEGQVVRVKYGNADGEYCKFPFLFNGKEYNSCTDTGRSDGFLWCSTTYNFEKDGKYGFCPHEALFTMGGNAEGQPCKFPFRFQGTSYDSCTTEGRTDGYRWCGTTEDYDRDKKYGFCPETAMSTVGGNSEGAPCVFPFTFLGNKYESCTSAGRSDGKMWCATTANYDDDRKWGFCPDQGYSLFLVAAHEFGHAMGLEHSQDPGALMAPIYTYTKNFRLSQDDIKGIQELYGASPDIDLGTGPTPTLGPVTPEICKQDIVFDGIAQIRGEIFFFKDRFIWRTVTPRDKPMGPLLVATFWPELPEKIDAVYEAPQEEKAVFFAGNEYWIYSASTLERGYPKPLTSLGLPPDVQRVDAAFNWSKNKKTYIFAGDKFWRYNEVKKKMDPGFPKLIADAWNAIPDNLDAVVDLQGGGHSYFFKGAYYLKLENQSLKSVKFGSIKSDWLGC

Prothrombin = Prothrombin (Bos taurus, UniProt P00735); assay: thrombin inhibition, dose response, biochemical, fluorescence polarization, uHTS hits (AID 602369); type: functional
[9] = HeLa cell cytotoxicity, dose response, cytotoxicity control for MgcRacGAP inhibitor project (AID 624300); type: functional
[10] = target: T1, Rac GTPase-activating protein 1 (Homo sapiens, UniProt Q9H0H5); assay: MgcRacGAP GTPase-activating activity inhibitors, confirmation, biochemical, ADP Hunter fluorescence, primary and confirmatory (AID 624330); type: functional
T1 sequence (Q9H0H5 whole entry): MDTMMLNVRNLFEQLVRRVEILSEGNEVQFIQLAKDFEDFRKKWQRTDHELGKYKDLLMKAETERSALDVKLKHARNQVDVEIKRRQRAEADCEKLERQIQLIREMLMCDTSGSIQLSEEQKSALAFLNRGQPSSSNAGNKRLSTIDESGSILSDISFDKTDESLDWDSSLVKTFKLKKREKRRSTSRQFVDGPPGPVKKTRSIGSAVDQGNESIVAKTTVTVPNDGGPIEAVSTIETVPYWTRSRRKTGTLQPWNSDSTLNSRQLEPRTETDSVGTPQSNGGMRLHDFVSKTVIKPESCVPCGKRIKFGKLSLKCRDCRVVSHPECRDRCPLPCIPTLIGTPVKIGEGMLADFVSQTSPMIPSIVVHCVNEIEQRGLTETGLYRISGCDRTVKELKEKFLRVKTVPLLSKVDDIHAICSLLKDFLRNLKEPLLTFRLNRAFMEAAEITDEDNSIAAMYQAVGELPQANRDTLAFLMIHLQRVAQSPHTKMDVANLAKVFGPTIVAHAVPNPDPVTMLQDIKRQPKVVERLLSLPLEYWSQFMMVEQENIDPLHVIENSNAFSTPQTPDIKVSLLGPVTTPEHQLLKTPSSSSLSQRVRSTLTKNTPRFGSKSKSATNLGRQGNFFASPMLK

[11] = target: T2, DNA repair protein RAD52 homolog (Homo sapiens, UniProt P43351); type: functional, biochemical
T2 sequence (P43351 whole entry): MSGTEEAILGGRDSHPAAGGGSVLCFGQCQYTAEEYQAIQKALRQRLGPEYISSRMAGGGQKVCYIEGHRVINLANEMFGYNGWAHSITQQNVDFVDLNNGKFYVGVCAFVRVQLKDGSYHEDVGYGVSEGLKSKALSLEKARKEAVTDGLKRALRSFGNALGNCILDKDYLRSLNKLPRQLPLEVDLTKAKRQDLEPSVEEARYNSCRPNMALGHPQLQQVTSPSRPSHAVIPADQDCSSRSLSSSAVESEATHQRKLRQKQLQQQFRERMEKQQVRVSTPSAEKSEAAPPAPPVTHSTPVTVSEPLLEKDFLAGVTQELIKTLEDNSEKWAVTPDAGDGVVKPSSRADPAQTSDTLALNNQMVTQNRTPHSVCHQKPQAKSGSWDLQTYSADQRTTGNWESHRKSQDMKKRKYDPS

[12] = target: T3, Sentrin-specific protease 8 (Homo sapiens, UniProt Q96LD8); assay: SENP8 protease inhibitors, SAR follow-up, biochemical, luminescence (AID 504501); type: functional
T3 sequence (Q96LD8 whole entry): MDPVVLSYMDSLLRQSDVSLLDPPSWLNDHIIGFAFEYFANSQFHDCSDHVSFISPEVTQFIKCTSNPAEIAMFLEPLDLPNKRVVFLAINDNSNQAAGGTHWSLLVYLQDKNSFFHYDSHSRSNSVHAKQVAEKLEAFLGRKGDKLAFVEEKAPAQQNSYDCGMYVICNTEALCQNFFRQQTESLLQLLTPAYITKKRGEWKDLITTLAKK

Caspase-3 = target: T4, Caspase-3 (Homo sapiens, UniProt P42574); assay: SAR Analysis of small molecule inhibitors of Sentrin-specific proteases (SENPs) using a Caspase-3 Selectivity assay. [Related pubchem assays (depositor defined):AID2540, AID2599, AID434973, AID489001]; type: functional
T4 sequence (P42574 whole entry): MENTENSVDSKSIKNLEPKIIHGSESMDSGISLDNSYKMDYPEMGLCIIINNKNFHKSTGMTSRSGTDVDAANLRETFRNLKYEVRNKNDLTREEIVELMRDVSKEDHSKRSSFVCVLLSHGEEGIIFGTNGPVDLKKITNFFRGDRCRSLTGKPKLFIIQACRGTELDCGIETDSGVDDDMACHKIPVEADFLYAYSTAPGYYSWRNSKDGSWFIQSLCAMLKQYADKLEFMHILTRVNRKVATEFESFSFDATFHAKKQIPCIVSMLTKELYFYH

[13] = target: T5, Sentrin-specific protease 6 (Homo sapiens, UniProt Q9GZR1); assay: SAR Analysis of small molecule inhibitors of Sentrin-specific protease 6 (SENP6) using a Luminescent assay. [Related pubchem assays (depositor defined):AID2582, AID2599]; type: functional
T5 sequence (Q9GZR1 whole entry): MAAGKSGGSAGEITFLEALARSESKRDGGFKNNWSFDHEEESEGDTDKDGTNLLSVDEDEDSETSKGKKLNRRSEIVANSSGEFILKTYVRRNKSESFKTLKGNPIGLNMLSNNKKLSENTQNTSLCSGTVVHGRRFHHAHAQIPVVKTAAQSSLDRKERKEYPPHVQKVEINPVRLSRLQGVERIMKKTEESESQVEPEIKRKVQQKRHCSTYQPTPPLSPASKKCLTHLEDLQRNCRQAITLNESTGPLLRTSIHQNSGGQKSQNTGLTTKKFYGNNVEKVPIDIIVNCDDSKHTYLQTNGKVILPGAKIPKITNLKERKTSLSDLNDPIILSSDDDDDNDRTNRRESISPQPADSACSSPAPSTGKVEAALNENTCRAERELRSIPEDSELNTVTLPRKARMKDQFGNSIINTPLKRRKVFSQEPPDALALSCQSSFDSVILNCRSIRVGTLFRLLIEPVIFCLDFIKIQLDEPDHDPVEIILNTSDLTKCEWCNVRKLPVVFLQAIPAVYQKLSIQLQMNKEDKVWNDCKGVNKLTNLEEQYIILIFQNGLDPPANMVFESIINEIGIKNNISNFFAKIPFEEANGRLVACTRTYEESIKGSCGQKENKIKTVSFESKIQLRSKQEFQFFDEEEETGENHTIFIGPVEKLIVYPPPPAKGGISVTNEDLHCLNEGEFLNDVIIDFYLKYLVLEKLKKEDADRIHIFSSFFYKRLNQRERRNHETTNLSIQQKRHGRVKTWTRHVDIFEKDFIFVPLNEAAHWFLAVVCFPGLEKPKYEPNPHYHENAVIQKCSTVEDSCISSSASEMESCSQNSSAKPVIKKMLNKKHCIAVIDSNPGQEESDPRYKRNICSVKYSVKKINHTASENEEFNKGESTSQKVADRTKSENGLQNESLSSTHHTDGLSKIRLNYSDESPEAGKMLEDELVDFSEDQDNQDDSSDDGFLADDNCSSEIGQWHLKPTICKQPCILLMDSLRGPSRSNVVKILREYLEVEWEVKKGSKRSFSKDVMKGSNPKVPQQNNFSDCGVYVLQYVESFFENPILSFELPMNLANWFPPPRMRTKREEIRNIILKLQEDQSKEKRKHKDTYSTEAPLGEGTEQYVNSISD

[14] = target: T6, Sentrin-specific protease 7 (Homo sapiens, UniProt Q9BQF6); assay: SENP7 protease inhibitors, SAR follow-up, biochemical, luminescence (AID 504497); type: functional
T6 sequence (Q9BQF6 whole entry): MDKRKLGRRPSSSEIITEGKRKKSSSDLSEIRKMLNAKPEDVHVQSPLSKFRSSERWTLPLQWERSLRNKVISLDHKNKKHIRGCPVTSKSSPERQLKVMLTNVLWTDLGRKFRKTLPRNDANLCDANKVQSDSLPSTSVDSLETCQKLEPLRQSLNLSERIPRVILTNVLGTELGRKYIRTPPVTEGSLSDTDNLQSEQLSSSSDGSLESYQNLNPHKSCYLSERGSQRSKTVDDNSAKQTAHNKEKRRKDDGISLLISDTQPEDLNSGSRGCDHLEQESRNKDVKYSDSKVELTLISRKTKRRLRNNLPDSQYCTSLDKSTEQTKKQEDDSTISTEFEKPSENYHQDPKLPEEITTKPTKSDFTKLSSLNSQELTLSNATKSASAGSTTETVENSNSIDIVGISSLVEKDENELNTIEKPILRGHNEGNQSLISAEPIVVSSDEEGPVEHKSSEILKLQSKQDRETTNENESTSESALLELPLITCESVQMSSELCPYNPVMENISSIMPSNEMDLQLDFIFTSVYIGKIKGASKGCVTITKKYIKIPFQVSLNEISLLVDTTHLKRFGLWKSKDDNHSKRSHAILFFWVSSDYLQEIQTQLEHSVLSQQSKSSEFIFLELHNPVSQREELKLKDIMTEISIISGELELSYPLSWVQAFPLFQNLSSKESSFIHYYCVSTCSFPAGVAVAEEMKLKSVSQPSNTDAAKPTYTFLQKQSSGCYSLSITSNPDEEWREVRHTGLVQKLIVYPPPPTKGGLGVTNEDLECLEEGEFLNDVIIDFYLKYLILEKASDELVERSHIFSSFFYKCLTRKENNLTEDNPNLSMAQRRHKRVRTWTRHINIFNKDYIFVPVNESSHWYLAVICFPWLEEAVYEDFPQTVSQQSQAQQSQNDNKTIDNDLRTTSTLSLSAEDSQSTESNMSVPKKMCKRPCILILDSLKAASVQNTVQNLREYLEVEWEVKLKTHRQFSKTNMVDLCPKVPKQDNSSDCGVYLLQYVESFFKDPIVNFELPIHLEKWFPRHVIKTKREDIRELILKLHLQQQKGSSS

Structure (SMILES)	IC50 (Caspase-3)	IC50 [13]	IC50 [14]	EC50 (BJ [1])	EC50 (BJ [2])	EC50 (BJ [3])	EC50 [4]	EC50 (BJ [5])	IC50 [12]	further results
O=C1SC(Cc2ccccc2)C(=O)N1c1ccccc1 (configuration not stated)				5.85 µM (active)	> 150 µM (not active)	> 150 µM (not active)	20.8 µM (active)	> 66.7 µM (inactive)		
COc1cccc(/C=C2\SC(=S)N(CCCC(=O)Nc3cc(C)on3)C2=O)c1				3.22 µM (inconclusive)	> 150 µM (not active)	> 150 µM (not active)	> 150 µM (not active)	> 133 µM (inactive)		
CCCCCCCCCCCCCCCC(O)C[N+](C)(C)CCO (configuration not stated)										IC50 (Cysteine protease ATG4B): 7.58 µM (active); AC50 [6]: 5 µM (active); IC50 (Phospholipase A2): 6.53 µM (active); IC50 [7]: 22.1 µM (active); IC50 [8]: 81.8 µM (active); IC50 (Prothrombin): 45.1 µM (active); CC50 [9]: 33.4 µM (active); IC50 [10]: 86 µM (active); AC50 [11]: < 30.4 µM (active)

Second part, led by results:

IC50 (Caspase-3)	IC50 [13]	IC50 [14]	Structure (SMILES)	EC50 (BJ [1])	EC50 (BJ [2])	EC50 (BJ [3])	EC50 [4]	EC50 (BJ [5])	IC50 [12]	further results
18.7 µM (active)	84.4 µM (active)	10.9 µM (active)	CCCC(=O)Nc1ccc(-c2nc3cc(Cl)ccc3s2)cc1						82.4 µM (active)	
> 99 µM (inactive)	> 99 µM (inactive)	96.9 µM (active)	O=C(O)c1ccc(N/N=C/c2cn(Cc3ccccc3)c3ccccc23)cc1						> 99 µM (inactive)	

— ChEMBL document CHEMBL1201862, “PubChem BioAssay data set” (2004)
